Consider 23 compounds from patent publication US20250129092A1, “COMPOUNDS USEFUL IN MODULATION OF AHR SIGNALLING” (JAGUAHR THERAPEUTICS PTE LTD, priority 2021, published 2025).

For assay [1], the target named is T1, AhR (Homo sapiens, UniProt P35869).
T1 sequence (P35869 11-848): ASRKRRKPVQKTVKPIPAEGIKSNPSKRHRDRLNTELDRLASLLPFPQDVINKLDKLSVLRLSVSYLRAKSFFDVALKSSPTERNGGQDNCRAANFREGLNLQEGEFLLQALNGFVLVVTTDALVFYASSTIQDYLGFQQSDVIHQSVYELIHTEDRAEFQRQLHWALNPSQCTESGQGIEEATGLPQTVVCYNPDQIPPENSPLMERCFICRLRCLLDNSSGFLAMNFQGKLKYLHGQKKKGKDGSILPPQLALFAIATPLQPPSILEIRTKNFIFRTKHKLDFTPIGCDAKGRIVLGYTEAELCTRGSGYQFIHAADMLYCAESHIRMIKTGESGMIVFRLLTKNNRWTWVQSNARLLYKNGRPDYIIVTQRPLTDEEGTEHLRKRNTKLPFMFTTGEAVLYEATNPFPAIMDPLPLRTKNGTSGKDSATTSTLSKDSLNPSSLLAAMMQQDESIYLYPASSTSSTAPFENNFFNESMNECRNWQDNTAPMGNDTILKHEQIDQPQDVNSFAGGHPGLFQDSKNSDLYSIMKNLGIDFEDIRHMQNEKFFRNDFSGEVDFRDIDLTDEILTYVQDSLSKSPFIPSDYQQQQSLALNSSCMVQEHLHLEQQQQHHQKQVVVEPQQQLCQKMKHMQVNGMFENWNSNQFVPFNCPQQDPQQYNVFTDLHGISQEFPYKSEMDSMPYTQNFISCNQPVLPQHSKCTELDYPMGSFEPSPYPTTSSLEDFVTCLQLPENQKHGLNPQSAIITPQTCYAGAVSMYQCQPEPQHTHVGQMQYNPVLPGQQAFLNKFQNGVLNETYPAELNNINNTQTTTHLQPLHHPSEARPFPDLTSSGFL
Put plainly: AhR antagonism in human PBMCs - inhibition of IL-22 release. The format is cell-based. More on the design: endogenous in cells. To be noted: human PBMCs activated with CD3/CD28 agonist mixture, 72 hrs, IL-22 ELISA; average; read-out: hPBMC Inhibition of CD3/CD28 induced IL-22 release: av. pIC50 (converted). The source says:
In Vitro Assay 3: AhR Antagonism in Human Peripheral Blood Mononuclear Cells (PBMCs)-Inhibition of Interleukin-22 (IL-22) Release.
PBMCs were isolated from human peripheral blood using Lymphoprep™ and diluted to 1×10^6 cells per ml in RPMI media containing […] foetal bovine serum, 1% penicillin-streptomycin and 1% non essential amino acids. PBMCs were subsequently activated with 1p1 per 100,000 cells of a CD3/CD28 agonist mixture (human T Cell TransAct™ (Miltenyi Biotec)) and then plated at 100,000 cells per well in a round bottom 96 well tissue culture plate. One hour after stimulation seven concentrations of each test compound or vehicle (final [DMSO] 0.2%) were added. The plates were then placed in an incubator at 37° C., ≥85% humidity, 5% […] for 72 hrs before the media was removed and stored at −20° C. until cytokine analysis. IL-22 was measured using human IL-22 DuoSet ELISA (R&D systems) according to the manufacturer's instructions.
(In an ELISA, binding on a coated surface is turned into a signal by an enzyme label.)

Assay [2] addresses T1, AhR. The assay can be described thus: AhR antagonism in U937 cells (Promega P450-Glo assay). The format is cell-based. More on the design: endogenous in cells; host or cells: U937 cells. Particulars: CYP1A1 activity readout (Luciferin-CEE), head names VAF347, average, read-out: U937 Antagonist pIC50-VAF347: av. pIC50 (converted). The protocol: In Vitro Assay 1: AhR Antagonism in U937 Cells (Promega P450-Glo™ Assay)
AhR antagonism was assessed in LJ937 cells (myeloid lineage cell line derived from a human histiocytic lymphoma). Ligand binds the AhR in the cytoplasm, and the AhR-ligand complex translocates to the nucleus and forms a heterodimer with AhR nuclear translocator (Arnt). This complex binds the xenobiotic response element (XRE) in the 5′ upstream region of the CYP1A1 promoter, enhancing CYP1A1 expression. CYP1A1 activity is subsequently determined by assessing the conversion of Luciferin-CEE to luciferin, which in turn reacts with luciferase to produce light. The amount of light produced is directly proportional to cytochrome P450 activity. U937 cells in Ultraculture serum free media (Lonza) were plated at 100,000 cells per well in a round bottom 96 well tissue culture plate. […] The plates were then placed in an incubator at 37° C., ≥85% humidity, 5% CO2 for 24 hrs. After aspiration of the supernatant the CYP1A1 substrate Luciferin-CEE ([Final] 83 μM) was added and incubated for 3 hrs before the reaction was stopped by adding luciferin detection reagent and luminescence was read after 20 minutes.

Take `Cc1ncc(-c2nc3c(c(N[C@@H]4CCc5[nH]c6ccccc6c5C4)n2)OCC(CN(C)C)N3)s1` (mixture of isomers) [Example 38, 7-[(dimethylamino)methyl]-2-(2-methylthiazol-5-yl)-N-[(3R)-2,3,4,9-tetrahydro-1H-carbazol-3-yl]-7,8-dihydro-6H-pyrimido[5,4-b][1,4]oxazin-4-amine]: the IC50 in assay [1] was 0.0891 µM; in assay [2], 0.0661 µM.

For the compound `Cc1ncc(-c2nc3c(c(N[C@@H]4Cc5cccc6[nH]cc(c56)C4)n2)OCCN3)s1` (single isomer, unassigned) [Example 61], the IC50 in assay [1] is 1.26 µM; in assay [2] it was 0.339 µM.

`Cc1ncc(-c2nc3c(c(N[C@H]4Cc5cccc6[nH]cc(c56)C4)n2)OCCN3)s1` (single isomer, unassigned) [Example 62]: the results for the IC50 in assay [1] and in assay [2] were 0.132 µM and 0.0501 µM, respectively.

On to `Cc1ccc(-c2nc3c(c(NCCc4c[nH]c5ccccc45)n2)OCCN3)cn1` [Example 15, N-[2-(1H-indol-3-yl)ethyl]-2-(6-methyl-3-pyridyl)-7,8-dihydro-6H-pyrimido[5,4-b][1,4]oxazin-4-amine], for which the IC50 in assay [2] is 0.0891 µM.

Consider `Cc1ncc(-c2nc3c(c(NCCc4c[nH]c5ccccc45)n2)OCCN3)cc1F` [Example 16, 2-(5-fluoro-6-methyl-3-pyridyl)-N-[2-(1H-indol-3-yl)ethyl]-7,8-dihydro-6H-pyrimido[5,4-b][1,4]oxazin-4-amine], for which the IC50 in assay [2] is 0.0331 µM.

`O=c1ccc(-c2nc3c(c(NCCc4c[nH]c5ccccc45)n2)OCCN3)c[nH]1` [Example 18, 5-[4-[2-(1H-indol-3-yl)ethylamino]-7,8-dihydro-6H-pyrimido[5,4-b][1,4]oxazin-2-yl]-1H-pyridin-2-one]: in assay [2], the IC50 was 0.447 µM.

As to `COc1ncc(C)cc1-c1nc2c(c(NCCc3c[nH]c4ccccc34)n1)OCCN2` [Example 23, N-[2-(1H-indol-3-yl)ethyl]-2-(2-methoxy-5-methyl-3-pyridyl)-7,8-dihydro-6H-pyrimido[5,4-b][1,4]oxazin-4-amine], in assay [2], the IC50 was 0.457 µM.

In the case of `CC1(C)COc2c(NCCc3c[nH]c4ccccc34)nc(-c3cncc(F)c3)nc2N1` [Example 31, 2-(5-fluoro-3-pyridyl)-N-[2-(1H-indol-3-yl)ethyl]-7,7-dimethyl-6,8-dihydropyrimido[5,4-b][1,4]oxazin-4-amine], in assay [2], the IC50 is 0.0162 µM.

For the compound `Cc1ncc(-c2nc(N[C@@H]3CCc4[nH]c5ccccc5c4C3)c3c(n2)N(S(C)(=O)=O)CCO3)s1` [Example 39, 8-methylsulfonyl-2-(2-methylthiazol-5-yl)-N-[(3R)-2,3,4,9-tetrahydro-1H-carbazol-3-yl]-6,7-dihydropyrimido[5,4-b][1,4]oxazin-4-amine], the IC50 in assay [2] is 0.0891 µM.

With `O=c1[nH]cccc1-c1nc2c(c(NCCc3c(Cl)[nH]c4ccccc34)n1)OCCN2` [Example 40, 3-(4-((2-(2-chloro-1H-indol-3-yl)ethyl)amino)-7,8-dihydro-6H-pyrimido[5,4-b][1,4]oxazin-2-yl)pyridin-2(1H)-one], in assay [2], the IC50 was 0.0151 µM.

Turning to `Cc1[nH]c2c(F)cccc2c1CCNc1nc(-c2ccc[nH]c2=O)nc2c1OCCN2` [Example 41, 3-[4-[2-(7-fluoro-2-methyl-1H-indol-3-yl)ethylamino]-7,8-dihydro-6H-pyrimido[5,4-b][1,4]oxazin-2-yl]-1H-pyridin-2-one], the IC50 in assay [2] is 0.0195 µM.

Regarding `Cc1[nH]c2c(F)cc(F)cc2c1CCNc1nc(-c2ccc[nH]c2=O)nc2c1OCCN2` [Example 42, 3-(4-((2-(5,7-difluoro-2-methyl-1H-indol-3-yl)ethyl)amino)-7,8-dihydro-6H-pyrimido[5,4-b][1,4]oxazin-2-yl)pyridin-2-ol], the IC50 in assay [2] is 0.209 µM.

As to `Oc1ncccc1-c1nc2c(c(NCCc3c[nH]c4cc(OC(F)(F)F)ccc34)n1)OCCN2` [Example 43, 3-(4-((2-(6-(trifluoromethoxy)-1H-indol-3-yl)ethyl)amino)-7,8-dihydro-6H-pyrimido[5,4-b][1,4]oxazin-2-yl)pyridin-2(1H)-one], the IC50 in assay [2] is 0.00708 µM.

Turning to `COC[C@@H]1COc2c(NCCc3c[nH]c4cc(F)ccc34)nc(-c3ccc[nH]c3=O)nc2N1` [Example 47, (R)-3-(4-((2-(6-fluoro-1H-indol-3-yl)ethyl)amino)-7-(methoxymethyl)-7,8-dihydro-6H-pyrimido[5,4-b][1,4]oxazin-2-yl)pyridin-2(1H)-one], the IC50 in assay [2] is 0.00324 µM.

As to `Cc1ncc(-c2nc3c(c(N[C@@H]4CCc5[nH]c6ccccc6c5C4)n2)OCCN3)s1` [Example 51, 2-(2-methylthiazol-5-yl)-N-[(3R)-2,3,4,9-tetrahydro-1H-carbazol-3-yl]-7,8-dihydro-6H-pyrimido[5,4-b][1,4]oxazin-4-amine], the IC50 in assay [2] was 0.204 µM.

As for `Cc1nc(C)c(-c2nc3c(c(NCCc4c[nH]c5ccccc45)n2)OCCN3)s1` [Example 52, 2-(2,4-dimethylthiazol-5-yl)-N-[2-(1H-indol-3-yl)ethyl]-7,8-dihydro-6H-pyrimido[5,4-b][1,4]oxazin-4-amine], the IC50 in assay [2] is 0.0178 µM.

As for `Cn1cc(-c2nc3c(c(NCCc4c[nH]c5ccccc45)n2)OCCN3)nn1` [Example 55, N-[2-(1H-indol-3-yl)ethyl]-2-(1-methyltriazol-4-yl)-7,8-dihydro-6H-pyrimido[5,4-b][1,4]oxazin-4-amine], the IC50 in assay [1] was greater than 2 µM.

As to `Cn1cc(-c2nc3c(c(NCCc4c[nH]c5ccccc45)n2)OCCN3)ccc1=O` [Example 58, 5-[4-[2-(1H-indol-3-yl)ethylamino]-7,8-dihydro-6H-pyrimido[5,4-b][1,4]oxazin-2-yl]-1-methyl-pyridin-2-one], the IC50 in assay [2] was 0.347 µM.

With `COc1ncc(F)cc1-c1nc2c(c(N[C@@H]3CCc4[nH]c5ccccc5c4C3)n1)OCCN2` [Example 65, 2-(5-fluoro-2-methoxy-3-pyridyl)-N-[(3R)-2,3,4,9-tetrahydro-1H-carbazol-3-yl]-7,8-dihydro-6H-pyrimido[5,4-b][1,4]oxazin-4-amine], the IC50 in assay [2] was greater than 0.813 µM.

On to `COc1ncc(F)cc1-c1nc2c(c(NCCc3c[nH]c4ccccc34)n1)OCCN2` [Example 67, 2-(5-fluoro-2-methoxy-3-pyridyl)-N-[2-(1H-indol-3-yl)ethyl]-7,8-dihydro-6H-pyrimido[5,4-b][1,4]oxazin-4-amine], for which the IC50 in assay [2] is 0.0661 µM.

`Cc1c[nH]c(=O)c(-c2nc3c(c(NCCc4c[nH]c5ccccc45)n2)OCCN3)c1` [Example 68, 3-[4-[2-(1H-indol-3-yl)ethylamino]-7,8-dihydro-6H-pyrimido[5,4-b][1,4]oxazin-2-yl]-5-methyl-pyridin-2-ol]: the IC50 in assay [2] was 0.0331 µM.

Take `O=c1[nH]cc(C(F)(F)F)cc1-c1nc2c(c(NCCc3c[nH]c4ccccc34)n1)OCCN2` [Example 69, 3-(4-((2-(1H-indol-3-yl)ethyl)amino)-7,8-dihydro-6H-pyrimido[5,4-b][1,4]oxazin-2-yl)-5-(trifluoromethyl)pyridin-2 (1H)-one]: in assay [2], the IC50 is 0.0813 µM.

In the case of `O=c1[nH]cc(Cl)cc1-c1nc2c(c(NCCc3c[nH]c4ccccc34)n1)OCCN2` [Example 72, 3-(4-((2-(1H-indol-3-yl)ethyl)amino)-7,8-dihydro-6H-pyrimido[5,4-b][1,4]oxazin-2-yl)-5-chloropyridin-2-ol], the IC50 in assay [2] is 0.0148 µM.
